Experiment: in-vitro nail permeation assay in Franz-type diffusion cells
Assay type: in vitro ADME, human
Conditions: formulations with 5% and 10% (w/w) terbinafine in the vehicle of Table 3; nails with 400 orifices/cm^2, depth 0.5 mm (50% to 70% of nail plate thickness); single dose of 100 μL; 30° C.; up to 72 hours
Procedure: Franz-cells comprise two chambers separated by the nail plate. The radiolabelled [^14C]-terbinafine containing transungual formulations were applied in the donor upper chamber and the receptor chamber is filled with a buffer to simulate the human physiological conditions. To account for the fact the nails are hard and curved, wetted nails are clamped between two flexible flat silicone polymer disks. The temperature of the cells was kept a 30° C. using a circulating water bath. Magnetic stirrer bars were used to ensure receptor uniformity throughout an experiment.
The nail permeation assays consisted of exposing the dorsal side of the nail plates to the investigated formulations while monitoring the appearance the amount of radiolabelled [^14C]-terbinafine on the ventral side by […] in the receptor fluid chamber of the Franz cells. In all cases a single dose of 100 μL was applied in the nail dorsal side. 100 μL of buffer were taken for each time point for LSC measurement which was replaced by buffer in order to keep the total buffer volume constant. The sampling time points were 0, 1, 3, 5, 7, 24, 32, 48, 52, 55 and 72 hours.
Human cadaveric thumb toenails used in the permeation assays were harvested from diseased adults (age >50 years old) in order to match thickness and consistence of the nails of the patient age group having a higher incidence to onychomycosis. […]

- terbinafine permeation fluxes in laser pre-treated nails versus untreated nails: three to four times higher
Structure (SMILES): CN(C/C=C/C#CC(C)(C)C)Cc1cccc2ccccc12 [terbinafine]

— patent US20070144540A1, “Drug delivery through application in nails” (TLT Medical Ltd., priority 2004, published 2007)
